Consider 14 compounds from patent US12297187B2, “Compound having cyclic structure” (Daiichi Sankyo Company, Limited, priority 2017, dated 2025).

The assay deals with IL-10. Nature of the assay: Measurement of IL-10 increase rate (LPS-induced inflammation in mice, serum IL-10 by ELISA). The assay is classed as in vivo. The settings on record: Mus musculus, 2 h, oral 100 mg/kg in 0.5% methyl cellulose, LPS 0.4 mg/kg i.p. one hour later, serum taken one hour after LPS, % control ratio vs 0.5% methyl cellulose group, read-out: IL10 Increase Rate (%). How it is done:
A test substance was suspended in a 0.5% (w/v) methyl cellulose and orally administered to mice at a dose of 100 mg/kg. One hour later, a lipopolysaccharide (LPS, Sigma-Aldrich, L2630 (trade name)) (0.4 mg/kg) was intraperitoneally administered to induce inflammation. One hour after administration of LPS, blood was taken from the vena cava under anesthesia with isoflurane, placed in a tube containing a serum separating agent, allowed to stand still at room temperature for 20-30 minutes and centrifuged at 4° C. at 12,000 rpm for 5 minutes to obtain the serum. Thereafter, the amount of the IL-10 in the serum was measured by using Mouse IL-10 Quantikine ELISA Kit (R&D systems, M1000B (trade name)) or Mouse IL-10 Immunoassay kit (PerkinElmer, AL502 (trade name)) in accordance with the protocol of the kit. The serum was diluted 10 times with the dilution solution contained in the kit and put in use. IL-10 increase rate (% control ratio) of the compound was calculated in accordance with the following expression: IL-10 increase rate (% control ratio) (IL10 amount in compound administration group)×100/(IL-10 amount in 0.5% (w/v) methyl cellulose administration group)
(In an ELISA, binding on a coated surface is turned into a signal by an enzyme label.)

As to `CC(C)c1cccc(O[C@H](C)c2nnc([C@H]3CC[C@H](n4cc(C5(F)CCN(C)CC5)nn4)CC3)n2C)c1` [Example 4, 4-Fluoro-1-methyl-4-{1-[trans-4-(4-methyl-5-{(1R)-1-[3-(propan-2-yl)phenoxy]ethyl}-4H-1,2,4-triazol-3-yl)cyclohexyl]-1H-1,2,3-triazol-4-yl}piperidine], the response vs control in vivo at 100 mg/kg was 131%. Consider `Cn1c(CCn2cccc(C(F)(F)F)c2=O)nnc1[C@H]1CC[C@H](c2cnn([C@H]3CC[C@H](N4CC5(CCOC5)C4)CC3)c2)CC1` [Example 33, 1-{2-[4-Methyl-5-(trans-4-{1-[trans-4-(6-oxa-2-azaspiro[3.4]oct-2-yl)cyclohexyl]-1H-pyrazol-4-yl}cyclohexyl)-4H-1,2,4-triazol-3-yl]ethyl}-3-(trifluoromethyl)pyridin-2(1H)-one], for which the response vs control in vivo at 100 mg/kg came out at 144%.

Take `CC(C)c1cccc(OCc2nnc(-c3ccc(-n4cc(C5CCN(C)CC5)nn4)cn3)n2C)c1` [Example 2, 5-[4-(1-Methylpiperidin-4-yl)-1H-1,2,3-triazol-1-yl]-2-(4-methyl-5-{[3-(propan-2-yl)phenoxy]methyl}-4H-1,2,4-triazol-3-yl)pyridine]: the response vs control in vivo at 100 mg/kg stood at 220%. For `CN1CCC(c2cn(-c3ccc(-c4nnc(COc5cccc(C(F)(F)F)c5)n4C)cc3)nn2)CC1` [Example 1, 1-Methyl-4-{1-[4-(4-methyl-5-{[3-(trifluoromethyl)phenoxy]methyl}-4H-1,2,4-triazol-3-yl)phenyl]-1H-1,2,3-triazol-4-yl}piperidine], the response vs control in vivo at 100 mg/kg amounted to 146%. In the case of `CC(C)c1cccc(OCc2nnc([C@H]3CC[C@H](n4cc(-c5ccc([C@@H](C)N6CCC6)cc5)nn4)CC3)n2C)c1` [Example 6, 4-{4-[(1R)-1-(Azetidin-1-yl)ethyl]phenyl}-1-[trans-4-(4-methyl-5-{[3-(propan-2-yl)phenoxy]methyl}-4H-1,2,4-triazol-3-yl)cyclohexyl]-1H-1,2,3-triazole], the response vs control in vivo at 100 mg/kg worked out at 243%.

For the compound `Cn1c(COc2cccc(C(F)(F)F)c2)nnc1[C@H]1CC[C@H](c2cn([C@@H]3CC[C@@H](CN4CCC4)OC3)nn2)CC1` [Example 19, 1,5-Anhydro-6-azetidin-1-yl-2,3,4,6-tetradeoxy-2-{4-[trans-4-(4-methyl-5-{[3-(trifluoromethyl)phenoxy]methyl}-4H-1,2,4-triazol-3-yl)cyclohexyl]-1H-1,2,3-triazol-1-yl}-D-erythro-hexitol], the response vs control in vivo at 100 mg/kg stood at 227%. The value for `CC(C)c1cccc(O[C@@H](C)c2nnc(C34CCC(n5cc(-c6ccc([C@@H](C)N7CCC7)cc6)nn5)(CC3)CC4)n2C)c1` [Example 7, 4-{4-[(1R)-1-(Azetidin-1-yl)ethyl]phenyl}-1-[4-(4-methyl-5-{(1S)-1-[3-(propan-2-yl)phenoxy]ethyl}-4H-1,2,4-triazol-3-yl)bicyclo[2.2.2]oct-1-yl]-1H-1,2,3-triazole] was 113%; that for `Cn1c(COc2cc(C(F)(F)F)ccn2)nnc1[C@H]1CC[C@H](c2cnn([C@H]3CC[C@H](N4CC5(CCO5)C4)CC3)c2)CC1` [Example 25, 6-[trans-4-(4-{trans-4-[4-Methyl-5-({[4-(trifluoromethyl)pyridin-2-yl]oxy}methyl)-4H-1,2,4-triazol-3-yl]cyclohexyl}-1H-pyrazol-1-yl)cyclohexyl]-1-oxa-6-azaspiro[3.3]heptane] was 216%; that for `Cn1c(COc2cc(C(F)(F)F)ccn2)nnc1[C@H]1CC[C@H](c2cnn([C@H]3CC[C@H](N4CC(CO)(CO)C4)CC3)c2)CC1` [Example 29, {1-[trans-4-(4-{trans-4-[4-Methyl-5-({[4-(trifluoromethyl)pyridin-2-yl]oxy}methyl)-4H-1,2,4-triazol-3-yl]cyclohexyl}-1H-pyrazol-1-yl)cyclohexyl]azetidine-3,3-diyl}dimethanol] was 111%. The value for `Cn1c(COc2cccc(Cl)c2)nnc1[C@H]1CC[C@H](c2cc([C@@H]3CC[C@@H](N4CCC4)CO3)on2)CC1` [Example 35, 3-(trans-4-{5-[(2S,5R)-5-(Azetidin-1-yl)tetrahydro-2H-pyran-2-yl]-1,2-oxazol-3-yl}cyclohexyl)-5-[(3-chlorophenoxy)methyl]-4-methyl-4H-1,2,4-triazole] was 184%; that for `CN1CCC(c2nnc(-c3ccc(-c4nnc(COc5cccc(C(F)(F)F)c5)n4C)cc3)o2)CC1` [Example 34, 1-Methyl-4-{5-[4-(4-methyl-5-{[3-(trifluoromethyl)phenoxy]methyl}-4H-1,2,4-triazol-3-yl)phenyl]-1,3,4-oxadiazol-2-yl}piperidine] was 202%; that for `Cn1c(COc2cc(C(F)(F)F)ccn2)nnc1[C@H]1CC[C@H](c2cn([C@H]3CC[C@H](N4CC(CF)C4)CC3)nn2)CC1` [Example 20, 2-({5-[trans-4-(1-{trans-4-[3-(Fluoromethyl)azetidin-1-yl]cyclohexyl}-1H-1,2,3-triazol-4-yl)cyclohexyl]-4-methyl-4H-1,2,4-triazol-3-yl}methoxy)-4-(trifluoromethyl)pyridine] was 176%. Consider `Cn1c(COc2cc(C(F)(F)F)ccn2)nnc1[C@H]1CC[C@H](c2cnn([C@H]3CC[C@H](N4CCC5(COC5)C4)CC3)c2)CC1` [Example 26, 6-[trans-4-(4-{trans-4-[4-Methyl-5-({[4-(trifluoromethyl)pyridin-2-yl]oxy}methyl)-4H-1,2,4-triazol-3-yl]cyclohexyl}-1H-pyrazol-1-yl)cyclohexyl]-2-oxa-6-azaspiro[3.4]octane], for which the response vs control in vivo at 100 mg/kg was 231%. The value for `CC(C)c1cccc(CC2OCCn3c2nnc3[C@H]2CC[C@H](n3cc(C4(F)CCN(C)CC4)nn3)CC2)c1` (stereo partly drawn) [Example 14, 3-{trans-4-[4-(4-Fluoro-1-methylpiperidin-4-yl)-1H-1,2,3-triazol-1-yl]cyclohexyl}-8-[3-(propan-2-yl)benzyl]-5,6-dihydro-8H-[1,2,4]triazolo[3,4-c][1,4]oxazine] was 216%.
